Each structure is given as a SMILES string. Converted amounts (≈) assume the structure as drawn.

This note sets out measurements from EPA's ToxValDB 9.5 (doi:10.2903/j.efsa.2009.333r).

For one series, the system named is Aphidius rhopalosiphi. Kind of series: LR50; higher = less toxic. Particulars: acute; duration: 48 hours; mortality.
For another series, the system named is Daphnia magna. Particulars: chronic/long-term; duration: 21 days; reproduction.
The test system of another series is Tagia sp. Particulars: acute; duration: 14 days; mortality.
The subject of a further series is Oryctolagus sp. Particulars: developmental; development.
A further series concerns Rattus norvegicus. Particulars: for NOAEL: clinical chemistry.
In another series the test system is Homo sapiens. The note with it: clinical; oral; M/F; clinical chemistry.
The test system of the next series is Apis mellifera. The note with it: acute; duration: 48 hours; dermal; mortality.
Another series has as its system Oncorhynchus mykiss. Particulars: chronic/long-term; duration: 97 days; growth.
For a further series, the system named is Gasterosteus aculeatus. The note with it: acute; duration: 96 hours; mortality.
A further series has as its system Colinus virginianus. Particulars: for LD50: acute, oral, mortality.

As usually defined, the NOAEL is the highest dose or exposure tested at which no adverse effect was seen. On to `CCOC(=O)CC(SP(=S)(OC)OC)C(=O)OCC` (stereo unspecified) [Malathion], for which the LR50 with Aphidius rhopalosiphi was found to be 0.0612 g/ha. The NOEC with Daphnia magna was 6e-05 mg/L; in the series with Oncorhynchus mykiss, 0.021 mg/L; in the series with Colinus virginianus (reproduction developmental), 13.5 mg/kg-day. Moreover, the figures for the LC50 in the series with Tagia sp. and in the series on Gasterosteus aculeatus were 613 mg/kg and 0.022 µg/mL (≈ 0.0666 µM), respectively. The NOAEL is 25 mg/kg-day with Oryctolagus sp.; 29 mg/kg-day in the series on Rattus norvegicus (chronic, duration: 2 years); 34.4 mg/kg-day in the series on Rattus norvegicus (subchronic, duration: 90 days, oral); greater than 15 mg/kg-day in the series on Homo sapiens. The LD50 came to 1780 mg/kg in the series with Rattus norvegicus (acute, oral, F, mortality); 0.16 µg/piece with Apis mellifera; 554 mg/kg-day with Colinus virginianus (diet); 359 mg/kg with Colinus virginianus.

For `CCOC(=O)CC(SP(=O)(OC)OC)C(=O)OCC` (stereo unspecified) [Malaoxon], the LD50 amounted to 334 mg/kg in the series with Colinus virginianus (diet) and 43 mg/kg with Colinus virginianus.
